Measured values taken from patent US12545672B2, “Antibiotic compounds, methods of manufacturing the same, pharmaceutical compositions containing the same and uses thereof” (Debiopharm International S.A., priority 2018, dated 2026).
Read-outs that look alike come from different tables or passages of the source.

How the values were obtained:
Neisseria gonorrhoeae = test: MIC50 by CLSI agar dilution on a panel of N. gonorrhoeae clinical isolates; format: cell-based
Experimental: MIC50: MICs were determined in accordance with the appropriate Clinical and Laboratory Standards Institute (CLSI) methodology by the agar dilution susceptbility testing method in GC agar base.

[1] = Prediction of hepatic extraction ratio from liver microsome stability; format: in vitro ADME; settings: human liver microsomes, Well-Stirred model
[2] = Mouse cassette PK and oral bioavailability determination; format: in vivo, Female BALB/c mice; settings: iv 1 mg/kg, po 2 mg/kg, cassette dosing; for bioavailability: female, BALB/c, mouse, plasma, read-out: Mouse F (%)
Experimental: Dose volumes were 5 ml/kg and 10 ml/kg for IV and oral administration, respectively. Compounds were co-formulated in a 10% DMSO (v/v) and 40% Captisol (w/v) in saline solution formulation (up to 3 compounds in a cassette). […] Tmax, Cmax, AUC, clearance, volume of distribution and oral bioavailability were estimated from the plasma concentrations using non-compartmental pharmacokinetic models. In particular, oral bioavailability (F %) was defined as F=(Doseiv*AUCpo)/(Dosepo*AUCiv)*100

[3] = biological target: Neisseria gonorrhoeae FabI (Neisseria gonorrhoeae, UniProt A0ACH0F547); test: Neisseria gonorrhoeae FabI inhibition assay (NADH consumption)
[4] = biological target: Chlamydia trachomatis FabI (Chlamydia trachomatis serovar D (strain ATCC VR-885 / DSM 19411 / UW-3/Cx), UniProt O84106); test: Chlamydia trachomatis FabI inhibition assay (NADH consumption); settings: read-out: CT FABI IC50; recombinant C. trachomatis FabI, 30° C., pH 7.0
Caco-2 = Caco-2 permeability assay; format: in vitro ADME; settings: 120 min incubation
Experimental: (§1) Caco-2 assay: Compounds were incubated in a Caco-2 24-transwell system (Solvo Biotechnologies, Hungary) for 120 min, after which samples were taken from the donor and acceptor compartments of the transwell system. The integrity of each cell monolayer was controlled by measuring transepithelial electrical resistance (TEER) before the experiment. Lucifer yellow permeability (B to A) was also tested as a control on the same plate (all wells) after the actual experiment. The samples were analyzed using UPLC/MS/MS. The permeation of the compounds was monitored using relative LC/MS/MS peak areas (initial donor solution sample=100%).

[5] = Caco-2 permeability assay; format: in vitro ADME; settings: human, Caco-2; A2B, 120 min incubation
Experimental: as §1

[6] = Neisseria gonorrhoeae, agar dilution, GC agar base, minimum of 15 clinical isolates, read-out: MIC50

Neisseria gonorrhoeae FabI, sequence (A0ACH0F547 1-261): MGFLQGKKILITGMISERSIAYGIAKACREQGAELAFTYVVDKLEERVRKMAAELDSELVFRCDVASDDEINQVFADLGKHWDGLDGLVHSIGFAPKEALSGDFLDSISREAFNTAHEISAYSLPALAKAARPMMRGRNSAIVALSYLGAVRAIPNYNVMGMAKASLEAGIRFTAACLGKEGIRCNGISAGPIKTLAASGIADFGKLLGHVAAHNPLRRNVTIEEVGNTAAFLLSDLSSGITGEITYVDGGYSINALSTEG
Chlamydia trachomatis FabI, sequence (O84106 1-298): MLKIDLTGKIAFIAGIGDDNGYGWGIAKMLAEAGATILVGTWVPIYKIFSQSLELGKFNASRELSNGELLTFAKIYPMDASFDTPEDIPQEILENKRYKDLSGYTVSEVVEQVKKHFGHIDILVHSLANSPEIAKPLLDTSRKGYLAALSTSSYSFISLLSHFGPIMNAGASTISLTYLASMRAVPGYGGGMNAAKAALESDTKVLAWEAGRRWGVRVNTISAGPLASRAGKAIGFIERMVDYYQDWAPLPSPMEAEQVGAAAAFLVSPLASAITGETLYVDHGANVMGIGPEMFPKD

MIC50 (Neisseria gonorrhoeae; [6]) [µg/mL] | Predict Human hep ER [1] | bioavailability [2] [%] | IC50 [3] [nM] | Papp A→B at 120 min [5] [×10⁻⁶ cm/s] | Compound | IC50 [4] [nM] | MIC50 (Neisseria gonorrhoeae; agar dilution, GC agar base, minimum of 15 clinical isolates) [µg/mL] | Caco-2 Papp A2B (Caco-2) | Mouse F (%) [2] [%] | IC50 ([3]; read-out: ngFabI IC50, recombinant N. gonorrhoeae FabI, 30° C., pH 7.2) [nM] | MIC50 (Neisseria gonorrhoeae; Neisseria gonorrhoeae) [µg/mL]
< 1 | 0.2 | 16 | < 10 | – | O=C1CCNc2cc(/C=C/C(=O)N3C[C@H]4CC(c5ccc(Oc6cncs6)cc5)=C[C@H]4C3)cnc2N1 [Compound 96, 8-((E)-3-Oxo-3-((3aS,6aR)-5-(4-(thiazol-5-yloxy)phenyl)-3,3a,4,6a-tetrahydrocyclopenta[c]pyrrol-2(1H)-yl)prop-1-en-1-yl)-1,2,3,5-tetrahydro-4H-pyrido[2,3-b][1,4]diazepin-4-one] | – | – | – | – | – | –
< 1 | 0.02 | 26 | < 10 | – | COc1cccc(Oc2ccc(C3=C[C@H]4CN(C(=O)/C=C/c5cnc6c(c5)NCCC(=O)N6)C[C@H]4C3)cc2)c1 [Compound 129, 8-((E)-3-((3rS,6rR)-5-(4-(3-methoxyphenoxy)phenyl)-3,3r,4,6r-tetrahydrocyclopenta[c]pyrrol-2(1H)-yl)-3-oxoprop-1-en-1-yl)-1,2,3,5-tetrahydro-4H-pyrido[2,3-b][1,4]diazepin-4-one] | – | – | – | – | – | –
< 1 | 0.13 | 13 | < 10 | – | COc1cc(Oc2ccc(C3=C[C@H]4CN(C(=O)/C=C/c5cnc6c(c5)NCCC(=O)N6)C[C@H]4C3)cc2)ccc1C#N [Compound 140, 2-methoxy-4-(4-((3rS,6rR)-2-((E)-3-(4-oxo-2,3,4,5-tetrahydro-1H-pyrido[2,3-b][1,4]diazepin-8-yl)acryloyl)-1,2,3,3r,4,6r-hexahydrocyclopenta[c]pyrrol-5-yl)phenoxy)benzonitrile] | – | – | – | – | – | –
< 1 | 0.07 | 44 | < 10 | – | Cc1oc2c(Oc3ccc4c(c3)OCO4)cccc2c1CN(C)C(=O)/C=C/c1cnc2c(c1)NC[C@@](C)(O)C(=O)N2 [Compound 176, (R,E)-N-((7-(benzo[d][1,3]dioxol-5-yloxy)-2-methylbenzofuran-3-yl)methyl)-3-(3-hydroxy-3-methyl-4-oxo-2,3,4,5-tetrahydro-1H-pyrido[2,3-b][1,4]diazepin-8-yl)-N-methylacrylamide] | – | – | – | – | – | –
< 1 | 0.43 | 9 | < 10 | – | Cc1oc2c(Oc3ccc4c(c3)N(C)CC4)cccc2c1CN(C)C(=O)/C=C/c1cnc2c(c1)NCCC(=O)N2 [Compound 134, (E)-N-Methyl-N-((2-methyl-7-((1-methylindolin-6-yl)oxy)benzofuran-3-yl)methyl)-3-(4-oxo-2,3,4,5-tetrahydro-1H-pyrido[2,3-b][1,4]diazepin-8-yl)acrylamide] | – | – | – | – | – | –
< 1 | 0.28 | 18 | < 10 | 3.4 | Cc1c(CN(C)C(=O)/C=C/c2cnc3c(c2)NCC2(CC(O)C2)C(=O)N3)oc2ccccc12 (stereo not shown) [Compound 115, (E)-3-(3-Hydroxy-4′-oxo-1′,2′,4′,5′-tetrahydrospiro[cyclobutane-1,3′-pyrido[2,3-b][1,4]diazepin]-8′-yl)-N-methyl-N-((3-methylbenzofuran-2-yl)methyl)acrylamide] | – | – | – | – | – | –

Compound | MIC50 (Neisseria gonorrhoeae; [6]) [µg/mL] | Predict Human hep ER [1] | bioavailability [2] [%] | IC50 [3] [nM] | Papp A→B at 120 min [5] [×10⁻⁶ cm/s] | IC50 [4] [nM] | MIC50 (Neisseria gonorrhoeae; agar dilution, GC agar base, minimum of 15 clinical isolates) [µg/mL] | Caco-2 Papp A2B (Caco-2) | Mouse F (%) [2] [%] | IC50 ([3]; read-out: ngFabI IC50, recombinant N. gonorrhoeae FabI, 30° C., pH 7.2) [nM] | MIC50 (Neisseria gonorrhoeae; Neisseria gonorrhoeae) [µg/mL]
COc1cccc(Oc2cccc3c(CN(C)C(=O)/C=C/c4cnc5c(c4)NCCC(=O)N5)c(C)oc23)c1 [Compound 155, (E)-N-((7-(3-methoxyphenoxy)-2-methylbenzofuran-3-yl)methyl)-N-methyl-3-(4-oxo-2,3,4,5-tetrahydro-1H-pyrido[2,3-b][1,4]diazepin-8-yl)acrylamide] | < 1 | 0.32 | 28 | < 10 | – | < 1000 | – | – | – | – | –
O=C1CCNc2cc(/C=C/C(=O)N3C[C@H]4CC(c5ccc(Oc6ccncc6)cc5)=C[C@H]4C3)cnc2N1 (racemic) [Compound 90, 8-((E)-3-Oxo-3-((3rS,6rR)-5-(4-(pyridin-4-yloxy)phenyl)-3,3r,4,6r-tetrahydrocyclopenta[c]pyrrol-2(1H)-yl)prop-1-en-1-yl)-1,2,3,5-tetrahydro-4H-pyrido[2,3-b][1,4]diazepin-4-one] | – | 0.03 | – | – | – | – | <1 | 10.7 10−6 cm/s | 7 | < 10 | –
Cc1c(CN(C)C(=O)/C=C/c2cnc3c(c2)NC[C@H](O)C(=O)N3)oc2cccc(N)c12 [Compound 275, (E)-N-[(4-Amino-3-methyl-benzofuran-2-yl)methyl]-3-[(3S)-3-hydroxy-4-oxo-1,2,3,5-tetrahydropyrido[2,3-b][1,4]diazepin-8-yl]-N-methyl-prop-2-enamide] | < 1 | – | 51 | < 10 | – | < 5000 | – | – | – | – | –
Cc1oc2c(Oc3ccc(C#N)cc3)cccc2c1CN(C)C(=O)/C=C/c1cnc2c(c1)NCCC(=O)N2 [Compound 80, (E)-N-((7-(4-cyanophenoxy)-2-methylbenzofuran-3-yl)methyl)-N-methyl-3-(4-oxo-2,3,4,5-tetrahydro-1H-pyrido[2,3-b][1,4]diazepin-8-yl)acrylamide] | – | 0.25 | 35 | < 10 | – | – | – | – | – | – | < 1
